This is an account of results in US11993593B2, “Griseofulvin compound and pharmaceutical use thereof” (Daiichi Sankyo Company, Limited, priority 2017, dated 2024).

One assay has as its system Male ddY mice. As to the kind of experiment: Forced swim test. It is filed as in vivo. The settings on record: Mus musculus, oral, dose 10 mg/kg, 4 hours after administration, immobility time measured for six minutes, ratio to control group (0.5% methylcellulose). As to the method:
(Test Example) Forced Swim Test
Male ddY mice (4 weeks old at the time of evaluation) were used for the test in groups of 10 mice. The mice were placed in a water bath (inner diameter 14.5 cm, height 20 cm, water temperature about 24° C.) with water filled to a height of about 15 cm, and a swimming trial was carried out for 15 minutes (training trial). The next day, mice were orally administered with a suspension of each compound (10 mL/kg, solvent: 0.5% methylcellulose aqueous solution) was orally administered to the mice, and four hours later, they were placed in the water bath. Immobility time (sec) was measured for six minutes immediately after that, and the ratio of the average immobility time of each compound administration group with respect to the average immobility time of a control group (10 mL/kg administration of 0.5% methylcellulose aqueous solution without a compound) was calculated.
Turning to `COCCOc1cc(OC)c2c(c1Cl)O[C@]1(C2=O)C(OC)=CC(=O)C[C@H]1C` [Example 2, (2S,5′R)-7-chloro-3′,4-dimethoxy-6-(2-methoxyethoxy)-5′-methyl-spiro [benzofuran-2,4′-cyclohex-2-ene]-1′,3-dione], the response vs control in vivo at 10 mg/kg was 71%.
On to `COC1=CC(=O)C[C@@H](C)[C@]12Oc1c(Cl)c(-c3ccn(C)n3)cc(OC)c1C2=O` [Example 3, (2S,5′R)-7-chloro-3′,4-dimethoxy-5′-methyl-6-(1-methylpyrazol-3-yl) spiro [benzofuran-2,4′-cyclohex-2-ene]-1′,3-dione], for which the response vs control in vivo at 10 mg/kg worked out at 84%.
Regarding `CCn1ccc(-c2cc(OC)c3c(c2Cl)O[C@]2(C3=O)C(OC)=CC(=O)C[C@H]2C)n1` [Example 4, (2S,5′R)-7-chloro-6-(1-ethylpyrazol-3-yl)-3′,4-dimethoxy-5′-methyl-spiro [benzofuran-2,4′-cyclohex-2-ene]-1′,3-dione], the response vs control in vivo at 10 mg/kg is 61%.
Same read-out and setting: with `COC1=CC(=O)C[C@@H](C)[C@]12Oc1c(Cl)c(-c3nnc(C)o3)cc(OC)c1C2=O` [Example 5, (2S,5′R)-7-chloro-3′,4-dimethoxy-5′-methyl-6-(5-methyl-1,3,4-oxadiazol-2-yl) spiro [benzofuran-2,4′-cyclohex-2-ene]-1′,3-dione] the figure was 62%; with `COC1=CC(=O)C[C@@H](C)[C@]12Oc1c(Cl)c(-c3nc(C)no3)cc(OC)c1C2=O` [Example 6, (2S,5′R)-7-chloro-3′,4-dimethoxy-5′-methyl-6-(3-methyl-1,2,4-oxadiazol-5-yl) spiro [benzofuran-2,4′-cyclohex-2-ene]-1′,3-dione], 67%.
As to `CCc1nnc(-c2cc(OC)c3c(c2Cl)O[C@]2(C3=O)C(OC)=CC(=O)C[C@H]2C)o1` [Example 17, (2S,5′R)-7-chloro-6-(5-ethyl-1,3,4-oxadiazol-2-yl)-3′,4-dimethoxy-5′-methyl-spiro [benzofuran-2,4′-cyclohex-2-ene]-1′,3-dione], the response vs control in vivo at 10 mg/kg stood at 72%.
The same measure, in the same setting: the value for `COC1=CC(=O)C[C@@H](C)[C@]12Oc1c(Cl)c(-c3nnc(C4CCOCC4)o3)cc(OC)c1C2=O` [Example 18, (2S,5′R)-7-chloro-3′,4-dimethoxy-5′-methyl-6-(5-tetrahydropyran-4-yl-1,3,4-oxadiazol-2-yl) spiro [benzofuran-2,4′-cyclohex-2-ene]-1′,3-dione] was 85%; that for `COC1=CC(=O)C[C@@H](C)[C@]12Oc1c(Cl)c(-c3nnc([C@H](C)OC)o3)cc(OC)c1C2=O` [Example 21, (2S,5′R)-7-chloro-3′,4-dimethoxy-6-[5-[(1S)-1-methoxyethyl]-1,3,4-oxadiazol-2-yl]-5′-methyl-spiro [benzofuran-2,4′-cyclohex-2-ene]-1′,3-dione] was 87%.
The same measure, in the same setting: with `CCOc1cc(-c2nnc(C)o2)c(Cl)c2c1C(=O)[C@@]1(O2)C(OC)=CC(=O)C[C@H]1C` [Example 22, (2S,5′R)-7-chloro-4-ethoxy-3′-methoxy-5′-methyl-6-(5-methyl-1,3,4-oxadiazol-2-yl) spiro [benzofuran-2,4′-cyclohex-2-ene]-1′,3-dione] the figure was 88%; with `COC1=CC(=O)C[C@@H](C)[C@]12Oc1c(Cl)c(-c3nc(C(C)OC)no3)cc(OC)c1C2=O` (stereo partly drawn) [Example 24, (2S,5′R)-7-chloro-3′,4-dimethoxy-6-[3-(1-methoxyethyl)-1,2,4-oxadiazol-5-yl]-5′-methyl-spiro [benzofuran-2,4′-cyclohex-2-ene]-1′,3-dione], 65%; with `COC1=CC(=O)C[C@@H](C)[C@]12Oc1c(Cl)c(-c3nc(C(C)(C)O)no3)cc(OC)c1C2=O` [Example 25, (2S,5′R)-7-chloro-6-[3-(1-hydroxy-1-methyl-ethyl)-1,2,4-oxadiazol-5-yl]-3′,4-dimethoxy-5′-methyl-spiro [benzofuran-2,4′-cyclohex-2-ene]-1′,3-dione], 58%.
On the same count and under the same terms, with `COC1=CC(=O)C[C@@H](C)[C@]12Oc1c(Cl)c(-c3ccn[nH]3)cc(OC)c1C2=O` [Example 26, (2S,5′R)-7-chloro-3′,4-dimethoxy-5′-methyl-6-(1H-pyrazol-5-yl) spiro [benzofuran-2,4′-cyclohex-2-ene]-1′,3-dione] the figure was 72%; with `COC1=CC(=O)C[C@@H](C)[C@]12Oc1c(Cl)c(C3=NOC4(CCOCC4)C3)cc(OC)c1C2=O` [Example 28, (2S,5′R)-7-chloro-6-(1,8-dioxa-2-azaspiro [4.5]dec-2-en-3-yl)-3′,4-dimethoxy-5′-methyl-spiro [benzofuran-2,4′-cyclohex-2-ene]-1′,3-dione], 80%.
Take `COC1=CC(=O)C[C@@H](C)[C@]12Oc1c(Cl)c(-c3cnc(OC)nc3)cc(OC)c1C2=O` [Example 30, (2S,5′R)-7-chloro-3′,4-dimethoxy-6-(2-methoxypyrimidin-5-yl)-5′-methyl-spiro [benzofuran-2,4′-cyclohex-2-ene]-1′,3-dione]: the response vs control in vivo at 10 mg/kg was determined as 70%.
Same read-out and setting: the value for `COC1=CC(=O)C[C@@H](C)[C@]12Oc1c(Cl)c(-c3ccc(OC)nc3)cc(OC)c1C2=O` [Example 31, (2S,5′R)-7-chloro-3′,4-dimethoxy-6-(6-methoxy-3-pyridyl)-5′-methyl-spiro [benzofuran-2,4′-cyclohex-2-ene]-1′,3-dione] was 68%.

The assay is the same for the next values; noted with them: Mus musculus, oral, dose 100 mg/kg, 4 hours after administration, immobility time measured for six minutes, ratio to control group (0.5% methylcellulose).
For the compound `COC1=CC(=O)C[C@@H](C)[C@]12Oc1c(Cl)c(OC)cc(OC)c1C2=O` [Griseofulvin, (2S,5′R)-7-chloro-3′,4,6-trimethoxy-5′-methyl-spiro [benzofuran-2,4′-cyclohex-2-ene]-1′,3-dione], the response vs control in vivo at 100 mg/kg is 72%.
